Experimental data from ChEMBL document CHEMBL5357027, “Annonaceous Acetogenins Synergistically Inhibit Hepatocellular Carcinoma with Sorafenib” (J Nat Prod, 2024).
Activity calls are given as the source filed them. The calls are words filed in the database; no cut-off is given here.

Legend:
[1] = tested on: HepG2; assay: Inhibition of mitochondrial function in human HepG2 cells assessed as reduction in ATP production at 16 uM incubated for 48 hrs relative to control; type: functional; set-up: scale not given: the % may be the effect or the level left
[2] = tested on: Huh-7; assay: Inhibition of mitochondrial function in human Huh-7 cells assessed as reduction in ATP production at 16 uM incubated for 48 hrs relative to control; type: functional; set-up: scale not given: the % may be the effect or the level left
[3] = tested on: MHCC97H; assay: Inhibition of mitochondrial function in human MHCC97H cells assessed as reduction in ATP production at 16 uM incubated for 48 hrs relative to control; type: functional; set-up: scale not given: the % may be the effect or the level left
[4] = tested on: HCCLM3; assay: Inhibition of mitochondrial function in human HCCLM3 cells assessed as reduction in ATP production at 16 uM incubated for 48 hrs relative to control; type: functional; set-up: scale not given: the % may be the effect or the level left
[5] = tested on: HCCLM3; assay: Induction of apoptosis in human HCCLM3 cells assessed as necrotic cells at 4 uM incubated for 48 hrs by Annexin V/FITC-PI staining based flow cytometry (reference value: 3.33%); type: functional
[6] = tested on: HCCLM3; assay: Induction of apoptosis in human HCCLM3 cells assessed as late apoptotic cells at 4 uM incubated for 48 hrs by Annexin V/FITC-PI staining based flow cytometry (reference value: 0.07%); type: functional
[7] = tested on: HCCLM3; assay: Induction of apoptosis in human HCCLM3 cells assessed as early apoptotic cells at 4 uM incubated for 48 hrs by Annexin V/FITC-PI staining based flow cytometry (reference value: 0.05%); type: functional
[8] = tested on: HCCLM3; assay: Induction of apoptosis in human HCCLM3 cells assessed as viable cells at 4 uM incubated for 48 hrs by Annexin V/FITC-PI staining based flow cytometry (reference value: 96.55%); type: functional; conditions: read-out: Activity
[9] = tested on: HepG2; assay: Cytotoxicity against human HepG2 cells assessed as cell growth inhibition incubated for 48 hrs by MTT assay; type: functional, cell-based; conditions: HepG2, 48 h
[10] = tested on: Huh-7; assay: Cytotoxicity against human Huh-7 cells assessed as cell growth inhibition incubated for 48 hrs by MTT assay; type: functional, cell-based; conditions: Huh-7, 48 h
[11] = tested on: MHCC97H; assay: Cytotoxicity against human MHCC97H cells assessed as cell growth inhibition incubated for 48 hrs by MTT assay; type: functional, cell-based
[12] = tested on: HCCLM3; assay: Cytotoxicity against human HCCLM3 cells assessed as cell growth inhibition incubated for 48 hrs by MTT assay; type: functional, cell-based; conditions: HCCLM3, 48 h
[13] = tested on: HCCLM3; assay: Inhibition of mitochondrial respiratory chain complex I in human HCCLM3 incubated for 24 hrs; type: cell-based
[14] = tested on: HepG2; assay: Synergistic cytotoxicity against human HepG2 cells assessed as cell growth inhibition by measuring synergy score at 1 to 16 uM incubated for 48 hrs in presence of sorafenib at 1 to 16 uM by MTT assay; type: functional; conditions: dose 1-16 µM
[15] = tested on: Huh-7; assay: Synergistic cytotoxicity against human Huh-7 cells assessed as cell growth inhibition by measuring synergy score at 1 to 16 uM incubated for 48 hrs in presence of sorafenib at 1 to 16 uM by MTT assay; type: functional; conditions: dose 1-16 µM
[16] = tested on: MHCC97H; assay: Synergistic cytotoxicity against human MHCC97H cells assessed as cell growth inhibition by measuring synergy score at 1 to 16 uM incubated for 48 hrs in presence of sorafenib at 1 to 16 uM by MTT assay; type: functional; conditions: dose 1-16 µM
[17] = tested on: HCCLM3; assay: Synergistic cytotoxicity against human HCCLM3 cells assessed as cell growth inhibition by measuring synergy score at 1 to 16 uM incubated for 48 hrs in presence of sorafenib at 1 to 16 uM by MTT assay; type: functional; conditions: dose 1-16 µM

| Compound | Activity [1] | Activity [2] | Activity [3] | Activity [4] | Activity [5] | Activity [6] | Activity [7] | viability at 4 µM [8] | IC50 [9] | IC50 [10] | IC50 [11] | IC50 [12] | inhibition [13] | Activity [14] | Activity [15] | Activity [16] | Activity [17] |
| --- | --- | --- | --- | --- | --- | --- | --- | --- | --- | --- | --- | --- | --- | --- | --- | --- | --- |
| CNC(=O)c1cc(Oc2ccc(NC(=O)Nc3ccc(Cl)c(C(F)(F)F)c3)cc2)ccn1 [SORAFENIB] | 69.5% | 41.1% | 54.4% | 77.4% | 1.57% | 0.67% | 3.59% | 94.2% | – | – | – | – | – | – | – | – | – |
| CCCCCCCCCC[C@@H](O)[C@H](O)C[C@@H](O)[C@H]1CC[C@H](CCCCCCCCCC[C@@H](O)CC2=C[C@H](C)OC2=O)O1 | – | – | – | – | – | – | – | – | > 50 µM | > 50 µM | > 50 µM | > 50 µM | Active | 2.7 | 2.7 | 2.7 | 2.7 |
